Values joined by “and” are separate entries in the source; they are usually repeats but may differ in a detail not shown here. Equal values may be shown once.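 All cell lines were grown in 96-well plates and treated with compound for 48 hours. At the GI50, growth is halved. TGI is the concentration that stops growth completely.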
Tests used:
Assay in all cases: inhibition of tumour cell growth, NCI panel, 48 h
HL-60(TB) leukemia = test system: HL-60(TB) leukemia
SK-MEL-5 melanoma = test system: SK-MEL-5 melanoma
CCRF-CEM leukemia = test system: CCRF-CEM leukemia
UACC-62 melanoma = test system: UACC-62 melanoma
SK-MEL-28 melanoma = test system: SK-MEL-28 melanoma
HCC-2998 colon = test system: HCC-2998 colon
RXF 393 renal = test system: RXF 393 renal
SR leukemia = test system: SR leukemia
HOP-92 NSCLC = test system: HOP-92 NSCLC
NCI-H226 lung = test system: NCI-H226 lung

## COc1ccc(Nc2ncnc3ccc(-c4cncc(NS(C)(=O)=O)c4)cc23)cc1Cl
HL-60(TB) leukemia
  GI50: 2.02 µM
  TGI: 6.72 µM
SK-MEL-5 melanoma
  GI50: 1.61 µM
  TGI: 3.21 µM
CCRF-CEM leukemia
  GI50: 0.896 µM
  TGI: 10 µM
UACC-62 melanoma
  GI50: 2.14 µM
  TGI: 8.31 µM
SK-MEL-28 melanoma
  GI50: 2.75 µM
  TGI: 18.4 µM
HCC-2998 colon
  GI50: 4.03 µM
  TGI: 15.4 µM
RXF 393 renal
  GI50: 2.08 µM
  TGI: 5.63 µM
SR leukemia
  GI50: 1.42 µM
  TGI: 5.86 µM
HOP-92 NSCLC
  GI50: 0.348 µM
  TGI: 4.62 µM
NCI-H226 lung
  GI50: 2.69 µM
  TGI: 18.1 µM

## Cc1nn(C)c2ncnc(N/N=C/c3cccc(O)c3O)c12
HL-60(TB) leukemia
  GI50: 0.322 µM
  TGI: 1.43 µM
SK-MEL-5 melanoma
  GI50: 0.433 µM
  TGI: 2.31 µM
CCRF-CEM leukemia
  GI50: 0.179 µM
  TGI: > 52.8 µM
UACC-62 melanoma
  GI50: 1.69 µM
  TGI: 5.98 µM
SK-MEL-28 melanoma
  GI50: 0.455 µM
  TGI: > 100 µM
HCC-2998 colon
  GI50: 0.853 µM
  TGI: > 100 µM
RXF 393 renal
  GI50: 0.513 µM
  TGI: > 27.7 µM
SR leukemia
  GI50: 0.269 µM
  TGI: 16.3 µM
HOP-92 NSCLC
  GI50: 0.747 µM
  TGI: 13.8 µM
NCI-H226 lung
  GI50: 3.69 µM
  TGI: > 49.2 µM

## COc1cc(S(=O)(=O)Nc2nc(-c3ccc(N4C(=O)C(C)SC4c4ccccc4O)cc3)cs2)ccc1Cl (centres undefined)
HL-60(TB) leukemia
  GI50: 38 µM
  TGI: > 100 µM
SK-MEL-5 melanoma
  GI50: 26 µM
  TGI: > 100 µM
CCRF-CEM leukemia
  GI50: 5.55 µM
  TGI: > 100 µM
UACC-62 melanoma
  GI50: 39.9 µM
  TGI: > 100 µM
SK-MEL-28 melanoma
  GI50: 39.5 µM
  TGI: > 100 µM
HCC-2998 colon
  GI50: 50.3 µM
  TGI: > 100 µM
RXF 393 renal
  GI50: > 100 µM
  TGI: > 100 µM
SR leukemia
  GI50: 43.3 µM
  TGI: > 100 µM
HOP-92 NSCLC
  GI50: 28 µM
  TGI: > 100 µM
NCI-H226 lung
  GI50: 20.3 µM
  TGI: > 100 µM

## Cc1ccc(S(=O)(=O)n2cc([C@@]3(O)C[C@H](CSC#N)OC3=O)c3ccccc32)cc1
HL-60(TB) leukemia
  GI50: 3.5 µM
  TGI: 12.2 µM
SK-MEL-5 melanoma
  GI50: 2.44 µM
  TGI: 19.8 µM
CCRF-CEM leukemia
  GI50: 3.17 µM
  TGI: 25.2 µM
UACC-62 melanoma
  GI50: 15 µM
  TGI: 35.5 µM
SK-MEL-28 melanoma
  GI50: 14 µM
  TGI: 27.7 µM
HCC-2998 colon
  GI50: 27 µM
  TGI: > 100 µM
RXF 393 renal
  GI50: 2.13 µM
  TGI: 7.61 µM
SR leukemia
  GI50: 0.41 µM
  TGI: 4.76 µM
HOP-92 NSCLC
  GI50: 23.9 µM
  TGI: 71.3 µM
NCI-H226 lung
  GI50: 16.8 µM
  TGI: 32.6 µM

## Cc1ccc2oc(=O)c3c(O)c4cccc(OC5OC(C)C6O[C@@H](c7ccccc7)OC6C5OC5OC(C)C(O)C(O)C5O)c4c4oc(=O)c1c2c34 (some centres undefined)
HL-60(TB) leukemia
  GI50: 0.0418 µM
  TGI: 0.7 µM and 0.361 µM
SK-MEL-5 melanoma
  GI50: 0.114 µM
  TGI: 1.09 µM and 0.7 µM
CCRF-CEM leukemia
  TGI: 0.365 µM and 0.363 µM
UACC-62 melanoma
  TGI: 0.444 µM and 0.432 µM
SK-MEL-28 melanoma
  GI50: 0.331 µM
  TGI: 1.88 µM and 2.01 µM
HCC-2998 colon
  GI50: 0.0747 µM
  TGI: 1.72 µM
RXF 393 renal
  TGI: 0.763 µM
SR leukemia
  GI50: 0.0174 µM
  TGI: < 0.0472 µM
HOP-92 NSCLC
  GI50: 0.333 µM
  TGI: 2.22 µM and 2.13 µM
NCI-H226 lung
  TGI: 0.211 µM

## CN(C)CCN1C(=O)c2cccc3c(/C=C/CN4C(=O)c5cccc6cccc(c56)C4=O)ccc(c23)C1=O
HL-60(TB) leukemia
  GI50: > 100 µM
  TGI: > 100 µM
SK-MEL-5 melanoma
  GI50: > 100 µM
  TGI: > 100 µM
CCRF-CEM leukemia
  GI50: 0.339 µM
  TGI: 69.9 µM
UACC-62 melanoma
  GI50: 16.3 µM
  TGI: 33.1 µM
SK-MEL-28 melanoma
  GI50: 0.766 µM
  TGI: 4.71 µM
HCC-2998 colon
  GI50: > 100 µM
  TGI: > 100 µM
RXF 393 renal
  GI50: 59.2 µM
  TGI: > 100 µM
SR leukemia
  GI50: 39.2 µM
  TGI: > 100 µM
HOP-92 NSCLC
  GI50: 3.67 µM
  TGI: 20.1 µM
NCI-H226 lung
  GI50: 1.92 µM
  TGI: 35.4 µM

## O=[N+]([O-])c1cc(/C=N\NS(=O)(=O)c2ccc(Cl)cc2)c(O)c([N+](=O)[O-])c1
HL-60(TB) leukemia
  TGI: 54 µM
SK-MEL-5 melanoma
  TGI: 66.6 µM
CCRF-CEM leukemia
  TGI: 78.5 µM
UACC-62 melanoma
  TGI: > 100 µM
SK-MEL-28 melanoma
  TGI: > 100 µM
HCC-2998 colon
  TGI: > 100 µM
RXF 393 renal
  TGI: 91.9 µM
SR leukemia
  TGI: 45.2 µM
HOP-92 NSCLC
  TGI: > 100 µM

## CCc1ccc2oc(=O)ccc2c1
HL-60(TB) leukemia
  TGI: > 100 µM
SK-MEL-5 melanoma
  TGI: > 100 µM
CCRF-CEM leukemia
  TGI: > 100 µM
UACC-62 melanoma
  TGI: > 100 µM
SK-MEL-28 melanoma
  TGI: > 100 µM
HCC-2998 colon
  TGI: > 100 µM
RXF 393 renal
  TGI: > 100 µM
SR leukemia
  TGI: > 100 µM
HOP-92 NSCLC
  TGI: > 100 µM
NCI-H226 lung
  TGI: > 100 µM

## COc1cc(/C=C/C(=O)CC(=O)/C=C/c2cc(OC)c(O)c(OC)c2)cc(OC)c1O
HL-60(TB) leukemia
  TGI: 25 µM and 42.6 µM
SK-MEL-5 melanoma
  GI50: 13.2 µM
  TGI: 25 µM and 36.4 µM
CCRF-CEM leukemia
  GI50: 4.01 µM
  TGI: > 25 µM and 64.8 µM
UACC-62 melanoma
  GI50: 5.51 µM
SK-MEL-28 melanoma
  GI50: 14.1 µM
  TGI: 21.5 µM and 57.8 µM
HCC-2998 colon
  TGI: 11.6 µM
RXF 393 renal
  GI50: 2.63 µM
  TGI: 7.3 µM and 16.1 µM
SR leukemia
  GI50: 7.56 µM
  TGI: 25 µM and > 100 µM
NCI-H226 lung
  GI50: 53.6 µM
  TGI: 25 µM and > 100 µM

## C1CSC[C@H]2COC[C@@H](CSCCS1)S2
HL-60(TB) leukemia
  TGI: > 100 µM
SK-MEL-5 melanoma
  TGI: > 100 µM
CCRF-CEM leukemia
  TGI: > 100 µM
SK-MEL-28 melanoma
  TGI: > 100 µM
HCC-2998 colon
  TGI: > 100 µM
SR leukemia
  TGI: > 100 µM
HOP-92 NSCLC
  TGI: > 100 µM

## COc1ccc(Br)c(CN2CCc3ccccc32)c1OS(=O)(=O)c1ccc(C)cc1
HL-60(TB) leukemia
  TGI: > 100 µM
CCRF-CEM leukemia
  TGI: > 100 µM
SK-MEL-28 melanoma
  TGI: > 100 µM
HCC-2998 colon
  TGI: > 100 µM
RXF 393 renal
  TGI: 65.7 µM
SR leukemia
  TGI: > 100 µM
HOP-92 NSCLC
  TGI: > 100 µM
NCI-H226 lung
  TGI: > 100 µM

## O=C(O)c1c2c(cc3c(=O)c4ccccc4[nH]c13)CCCC2
HL-60(TB) leukemia
  TGI: > 100 µM
CCRF-CEM leukemia
  TGI: > 100 µM
UACC-62 melanoma
  TGI: > 100 µM
SK-MEL-28 melanoma
  TGI: > 100 µM
HCC-2998 colon
  TGI: > 100 µM
RXF 393 renal
  TGI: > 100 µM
SR leukemia
  TGI: > 100 µM
HOP-92 NSCLC
  TGI: > 100 µM
NCI-H226 lung
  TGI: > 100 µM

## COc1cc(Cc2c(C)cc(OC)c3[nH]c4ccccc4c23)cc2c1[nH]c1ccccc12
HL-60(TB) leukemia
  GI50: 7.95 µM
  TGI: > 25 µM
SK-MEL-5 melanoma
  GI50: 3.94 µM
  TGI: 7.93 µM
CCRF-CEM leukemia
  GI50: 8.59 µM
  TGI: > 25 µM
UACC-62 melanoma
  GI50: 5.61 µM
  TGI: > 25 µM
SK-MEL-28 melanoma
  GI50: 8.61 µM
  TGI: > 25 µM
HCC-2998 colon
  GI50: 5.43 µM
  TGI: 14.7 µM
SR leukemia
  GI50: 7.77 µM
  TGI: > 25 µM
HOP-92 NSCLC
  GI50: 7.63 µM
  TGI: > 25 µM
NCI-H226 lung
  GI50: 4.67 µM
  TGI: 12.8 µM

## Cc1cc(=O)[nH]c(N/N=C/c2ccccc2O)n1
HL-60(TB) leukemia
  GI50: 4.26 µM
  TGI: 50.1 µM
SK-MEL-5 melanoma
  GI50: 4.19 µM
  TGI: 19.1 µM
CCRF-CEM leukemia
  GI50: 4.02 µM
  TGI: > 100 µM
UACC-62 melanoma
  GI50: 9.92 µM
  TGI: 51 µM
SK-MEL-28 melanoma
  GI50: 25.3 µM
  TGI: > 100 µM
HCC-2998 colon
  GI50: 12.3 µM
  TGI: > 100 µM
RXF 393 renal
  GI50: 12.8 µM
  TGI: 92.6 µM
SR leukemia
  GI50: 6.22 µM
  TGI: > 100 µM
NCI-H226 lung
  GI50: 24.3 µM
  TGI: > 100 µM

## O=C1C(Cl)=C(Cl)C(=O)N1c1ccc(Cl)c(Cl)c1Cl
HL-60(TB) leukemia
  TGI: 46.2 µM
SK-MEL-5 melanoma
  TGI: > 100 µM
CCRF-CEM leukemia
  TGI: 45.6 µM
UACC-62 melanoma
  TGI: > 100 µM
SK-MEL-28 melanoma
  TGI: > 100 µM
HCC-2998 colon
  TGI: > 100 µM
SR leukemia
  TGI: 68 µM
HOP-92 NSCLC
  TGI: 88.5 µM
NCI-H226 lung
  TGI: > 100 µM

— PubChem BioAssay (NCI)
